# Test results as given in PubChem BioAssay AID1745844 (Carcinogenic Potency Database (CPDB), 2022).
# The source made the active and inactive calls. No rule for the calls is given here.
# System: rodent lifetime carcinogenesis bioassay, tumor incidence TD50
# Test: chronic cancer bioassays in animals – CPDB, compiled studies (AID 1745844)
structure (smiles),measurement,setting,value
CCOP(=O)=O.CCOP(=O)=O.CCOP(=O)=O.[Al+3],TD50,"rat, strain Charles River CD1, females, in feed, site: kidney/pelvis, lesion: several types, types named in the paper, dosed 104 weeks, study length 104 weeks",14600 mg/kg/day
same,TD50,"rat, strain Charles River CD1, females, in feed, site: kidney/pelvis, lesion: transitional-cell carcinoma, dosed 104 weeks, study length 104 weeks",17800 mg/kg/day
same,TD50,"rat, strain Charles River CD1, females, in feed, site: kidney/pelvis, lesion: transitional-cell papilloma, dosed 104 weeks, study length 104 weeks",80400 mg/kg/day
same,TD50,"rat, strain Charles River CD1, females, in feed, site: urinary bladder, lesion: adenosquamous carcinoma, dosed 104 weeks, study length 104 weeks",110000 mg/kg/day
same,TD50,"rat, strain Charles River CD1, females, in feed, site: urinary bladder, lesion: several types, types named in the paper, dosed 104 weeks, study length 104 weeks",17600 mg/kg/day
same,TD50,"rat, strain Charles River CD1, females, in feed, site: urinary bladder, lesion: transitional-cell carcinoma, dosed 104 weeks, study length 104 weeks",23900 mg/kg/day
same,TD50,"rat, strain Charles River CD1, females, in feed, site: urinary bladder, lesion: transitional-cell papilloma, dosed 104 weeks, study length 104 weeks",452000 mg/kg/day
same,TD50,"rat, strain Charles River CD1, males, in feed, site: kidney/pelvis, lesion: several types, types named in the paper, dosed 104 weeks, study length 104 weeks",36400 mg/kg/day
same,TD50,"rat, strain Charles River CD1, males, in feed, site: kidney/pelvis, lesion: transitional-cell papilloma, dosed 104 weeks, study length 104 weeks",31800 mg/kg/day
same,TD50,"rat, strain Charles River CD1, males, in feed, site: urinary bladder, lesion: several types, types named in the paper, dosed 104 weeks, study length 104 weeks",3660 mg/kg/day
same,TD50,"rat, strain Charles River CD1, males, in feed, site: urinary bladder, lesion: transitional-cell carcinoma, dosed 104 weeks, study length 104 weeks",5000 mg/kg/day
same,TD50,"rat, strain Charles River CD1, males, in feed, site: urinary bladder, lesion: transitional-cell papilloma, dosed 104 weeks, study length 104 weeks",17200 mg/kg/day
OC[P+](CO)(CO)CO,TD50,"mouse, strain B6C3F1, females, by gavage, site: any site (literature study), lesion: several types, types named in the paper, dosed 103 weeks, study length 104 weeks",908 mg/kg/day (inactive)
same,TD50,"mouse, strain B6C3F1, females, by gavage, site: liver, lesion: hepatocellular adenoma + hepatocellular carcinoma + neoplastic nodule, dosed 103 weeks, study length 104 weeks",200 mg/kg/day
same,TD50,"mouse, strain B6C3F1, females, by gavage, site: lung, lesion: alveolar/bronchiolar adenoma + alveolar/bronchiolar carcinoma, dosed 104 weeks, study length 105 weeks",234 mg/kg/day
same,TD50,"mouse, strain B6C3F1, females, by gavage, site: multiple organs, lesion: malignant lymphoma, mixed type, dosed 104 weeks, study length 105 weeks",15.7 mg/kg/day (inactive)
same,carcinogen call,"mouse, strain B6C3F1, males, by gavage, site: any site (literature study), lesion: several types, types named in the paper, dosed 103 weeks, study length 104 weeks",negative (inactive)
same,TD50,"mouse, strain B6C3F1, males, by gavage, site: any site (literature study), lesion: several types, types named in the paper, dosed 104 weeks, study length 105 weeks",47.3 mg/kg/day
same,TD50,"mouse, strain B6C3F1, males, by gavage, site: lung, lesion: alveolar/bronchiolar adenoma + alveolar/bronchiolar carcinoma, dosed 103 weeks, study length 104 weeks",103 mg/kg/day
same,TD50,"mouse, strain B6C3F1, males, by gavage, site: lung, lesion: alveolar/bronchiolar adenoma + alveolar/bronchiolar carcinoma, dosed 104 weeks, study length 105 weeks",78.5 mg/kg/day
same,TD50,"mouse, strain B6C3F1, males, by gavage, site: multiple organs, lesion: malignant lymphoma, histiocytic type + malignant lymphoma, mixed type + malignant lymphoma, lymphocytic type + malignant lymph, dosed 104 weeks, study length 105 weeks",11.4 mg/kg/day (inactive)
same,TD50,"rat, strain Fischer 344, females, by gavage, site: any site (literature study), lesion: several types, types named in the paper, dosed 103 weeks, study length 104 weeks",4.78 mg/kg/day (inactive)
same,TD50,"rat, strain Fischer 344, females, by gavage, site: any site (literature study), lesion: several types, types named in the paper, dosed 104 weeks, study length 106 weeks",23.3 mg/kg/day (inactive)
same,TD50,"rat, strain Fischer 344, males, by gavage, site: any site (literature study), lesion: several types, types named in the paper, dosed 103 weeks, study length 104 weeks",14.7 mg/kg/day
same,TD50,"rat, strain Fischer 344, males, by gavage, site: any site (literature study), lesion: several types, types named in the paper, dosed 104 weeks, study length 106 weeks",1.78 mg/kg/day
same,TD50,"rat, strain Fischer 344, males, by gavage, site: liver, lesion: hepatocellular adenoma + hepatocellular carcinoma + neoplastic nodule, dosed 103 weeks, study length 104 weeks",24.5 mg/kg/day
same,TD50,"rat, strain Fischer 344, males, by gavage, site: liver, lesion: hepatocellular adenoma + hepatocellular carcinoma + neoplastic nodule, dosed 104 weeks, study length 106 weeks",12.4 mg/kg/day
same,TD50,"rat, strain Fischer 344, males, by gavage, site: multiple organs, lesion: mononuclear-cell leukemia, dosed 104 weeks, study length 106 weeks",2.42 mg/kg/day (inactive)
same,TD50,"rat, strain Fischer 344, males, by gavage, site: pituitary gland, anterior, lesion: adenoma, NOS + carcinoma, NOS, dosed 104 weeks, study length 106 weeks",3.3 mg/kg/day
same,TD50,"rat, strain Fischer 344, males, by gavage, site: pituitary gland, anterior, lesion: adenoma, NOS, dosed 104 weeks, study length 106 weeks",3.56 mg/kg/day
same,TD50,"rat, strain Fischer 344, males, by gavage, site: subcutaneous tissue, lesion: fibroma, dosed 103 weeks, study length 104 weeks",24.9 mg/kg/day (inactive)
CN(CCc1ccccc1)N=O,TD50,"rat, strain Fischer 344, males, in drinking water, site: esophagus, lesion: several types, types named in the paper, dosed 32 weeks, study length 127 weeks",0.0401 mg/kg/day
same,TD50,"rat, strain Fischer 344, males, in drinking water, site: esophagus, lesion: several types, types named in the paper, dosed 104 weeks, study length 127 weeks",0.0422 mg/kg/day
same,TD50,"rat, strain Fischer 344, males, in drinking water, site: forestomach, lesion: basal-cell carcinoma, dosed 32 weeks, study length 127 weeks",2.57 mg/kg/day
same,TD50,"rat, strain Fischer 344, males, in drinking water, site: forestomach, lesion: basal-cell carcinoma, dosed 104 weeks, study length 127 weeks",0.0422 mg/kg/day
same,TD50,"rat, strain Fischer 344, males, in drinking water, site: forestomach, lesion: basal-cell papilloma, dosed 32 weeks, study length 127 weeks",2.21 mg/kg/day
same,TD50,"rat, strain Fischer 344, males, in drinking water, site: liver, lesion: hyperplastic nodule, dosed 104 weeks, study length 127 weeks",0.184 mg/kg/day
same,carcinogen call,"rat, strain Fischer 344, males, in drinking water, site: tongue, lesion: basal-cell carcinoma, dosed 32 weeks, study length 127 weeks",positive
same,TD50,"rat, strain Fischer 344, males, in drinking water, site: tongue, lesion: basal-cell carcinoma, dosed 104 weeks, study length 127 weeks",0.184 mg/kg/day
same,TD50,"rat, strain Fischer 344, males, in drinking water, site: upper gastrointestinal tract, lesion: several types, types named in the paper, dosed 32 weeks, study length 127 weeks",0.00788 mg/kg/day
same,TD50,"rat, strain Fischer 344, males, in drinking water, site: upper gastrointestinal tract, lesion: several types, types named in the paper, dosed 104 weeks, study length 127 weeks",0.0136 mg/kg/day
